Measurements as given in the NIST ThermoML archive (doi:10.1016/j.jct.2012.02.011).
“And” between values parts separate entries of the source, which are not always exact repeats. Equal values may be shown once. ± gives the expanded uncertainty stated by the source.

What was measured:
[1] = relative permittivity at various frequencies (dimensionless); settings: 101.3 kPa, Liquid, Frequency=3 MHz
[2] = relative permittivity at various frequencies (dimensionless); xn = mol fraction of the nth substance listed; settings: 101.33 kPa, Liquid, Frequency=3 MHz, OH-301

## CCCCOCCO [2-butoxyethan-1-ol]
[1]; 293.15 K, OH-301
  relative permittivity: 9.78 ± 0.04
[1]; 298.15 K, OH-301
  relative permittivity: 9.35 ± 0.04
[1]; 303.15 K, OH-301
  relative permittivity: 8.88 ± 0.04
[1]; 308.15 K, OH-301
  relative permittivity: 8.39 ± 0.04
[1]; 313.15 K, OH-301
  relative permittivity: 7.91 ± 0.04

## CCOCCO [2-ethoxyethan-1-ol]
[1]; 293.15 K, OH-301
  relative permittivity: 14.25 ± 0.04
[1]; 298.15 K, OH-301
  relative permittivity: 14.03 ± 0.04
[1]; 303.15 K, OH-301
  relative permittivity: 13.76 ± 0.04
[1]; 308.15 K, OH-301
  relative permittivity: 13.44 ± 0.04
[1]; 313.15 K, OH-301
  relative permittivity: 13.07 ± 0.04

## COCCO [2-methoxyethan-1-ol]
[1]; 293.15 K, OH-301
  relative permittivity: 17.38 ± 0.04
[1]; 298.15 K, OH-301
  relative permittivity: 16.95 ± 0.04 and 16.96 ± 0.04
[1]; 303.15 K, OH-301
  relative permittivity: 16.56 ± 0.04
[1]; 308.15 K, OH-301
  relative permittivity: 16.16 ± 0.04
[1]; 313.15 K, OH-301
  relative permittivity: 15.77 ± 0.04

## COCCO [2-methoxyethan-1-ol] + O=[N+]([O-])c1ccccc1
[2]; 293.15 K, x2 = 0
  relative permittivity: 17.38 ± 0.04
[2]; 298.15 K, x2 = 0
  relative permittivity: 16.96 ± 0.04
[2]; 303.15 K, x2 = 0
  relative permittivity: 16.56 ± 0.04
[2]; 308.15 K, x2 = 0
  relative permittivity: 16.16 ± 0.04
[2]; 313.15 K, x2 = 0
  relative permittivity: 15.77 ± 0.04

## CCCOCCO [2-propoxyethanol]
[1]; 293.15 K, OH-301
  relative permittivity: 11.76 ± 0.04
[1]; 298.15 K, OH-301
  relative permittivity: 11.5 ± 0.04
[1]; 303.15 K, OH-301
  relative permittivity: 11.19 ± 0.04
[1]; 308.15 K, OH-301
  relative permittivity: 10.91 ± 0.04
[1]; 313.15 K, OH-301
  relative permittivity: 10.62 ± 0.04

## O=[N+]([O-])c1ccccc1 [nitrobenzene]
[1]; 293.15 K, OH-301 Stainless Steel Cell
  relative permittivity: 35.91 ± 0.06
[1]; 298.15 K, OH-301 Stainless Steel Cell
  relative permittivity: 34.78 ± 0.04
[1]; 303.15 K, OH-301 Stainless Steel Cell
  relative permittivity: 33.84 ± 0.05
[1]; 308.15 K, OH-301 Stainless Steel Cell
  relative permittivity: 33.13 ± 0.05
[1]; 313.15 K, OH-301 Stainless Steel Cell
  relative permittivity: 32.66 ± 0.04

## O=[N+]([O-])c1ccccc1 [nitrobenzene] + CCCCOCCO
[2]; 293.15 K, x1 = 1
  relative permittivity: 35.91 ± 0.06
[2]; 298.15 K, x1 = 1
  relative permittivity: 34.78 ± 0.06
[2]; 303.15 K, x1 = 1
  relative permittivity: 33.84 ± 0.05
[2]; 308.15 K, x1 = 1
  relative permittivity: 33.13 ± 0.05
[2]; 313.15 K, x1 = 1
  relative permittivity: 32.66 ± 0.04

## O=[N+]([O-])c1ccccc1 [nitrobenzene] + CCCOCCO
[2]; 293.15 K, x1 = 1
  relative permittivity: 35.91 ± 0.06
[2]; 298.15 K, x1 = 1
  relative permittivity: 34.78 ± 0.06
[2]; 303.15 K, x1 = 1
  relative permittivity: 33.84 ± 0.05
[2]; 308.15 K, x1 = 1
  relative permittivity: 33.13 ± 0.05
[2]; 313.15 K, x1 = 1
  relative permittivity: 32.66 ± 0.04

## O=[N+]([O-])c1ccccc1 [nitrobenzene] + CCOCCO
[2]; 293.15 K, x1 = 1
  relative permittivity: 35.91 ± 0.06
[2]; 298.15 K, x1 = 1
  relative permittivity: 34.78 ± 0.06
[2]; 303.15 K, x1 = 1
  relative permittivity: 33.84 ± 0.05
[2]; 308.15 K, x1 = 1
  relative permittivity: 33.13 ± 0.05
[2]; 313.15 K, x1 = 1
  relative permittivity: 32.66 ± 0.04
